Data reported in paper PMC3428805 (Journal of Medicinal Chemistry, 2012).

How the values were obtained:
[1] = Human microsomal stability; settings: human microsomes, 3 µM
[2] = Mouse microsomal stability; settings: mouse microsomes, 3 µM
[3] = Human plasma protein binding, equilibrium dialysis; settings: 50%
K562 cells = experiment: cells; type: cell-based; settings: Homo sapiens, K562, 72 h, read-out: K562 cells, GI50
Kif5a = target: T1, Kif5a (Homo sapiens, UniProt Q12840); experiment: Kinesin panel, basal and MT-stimulated ATPase, Kif5a; type: biochemical; settings: data not shown
T1 sequence (Q12840 1-1032): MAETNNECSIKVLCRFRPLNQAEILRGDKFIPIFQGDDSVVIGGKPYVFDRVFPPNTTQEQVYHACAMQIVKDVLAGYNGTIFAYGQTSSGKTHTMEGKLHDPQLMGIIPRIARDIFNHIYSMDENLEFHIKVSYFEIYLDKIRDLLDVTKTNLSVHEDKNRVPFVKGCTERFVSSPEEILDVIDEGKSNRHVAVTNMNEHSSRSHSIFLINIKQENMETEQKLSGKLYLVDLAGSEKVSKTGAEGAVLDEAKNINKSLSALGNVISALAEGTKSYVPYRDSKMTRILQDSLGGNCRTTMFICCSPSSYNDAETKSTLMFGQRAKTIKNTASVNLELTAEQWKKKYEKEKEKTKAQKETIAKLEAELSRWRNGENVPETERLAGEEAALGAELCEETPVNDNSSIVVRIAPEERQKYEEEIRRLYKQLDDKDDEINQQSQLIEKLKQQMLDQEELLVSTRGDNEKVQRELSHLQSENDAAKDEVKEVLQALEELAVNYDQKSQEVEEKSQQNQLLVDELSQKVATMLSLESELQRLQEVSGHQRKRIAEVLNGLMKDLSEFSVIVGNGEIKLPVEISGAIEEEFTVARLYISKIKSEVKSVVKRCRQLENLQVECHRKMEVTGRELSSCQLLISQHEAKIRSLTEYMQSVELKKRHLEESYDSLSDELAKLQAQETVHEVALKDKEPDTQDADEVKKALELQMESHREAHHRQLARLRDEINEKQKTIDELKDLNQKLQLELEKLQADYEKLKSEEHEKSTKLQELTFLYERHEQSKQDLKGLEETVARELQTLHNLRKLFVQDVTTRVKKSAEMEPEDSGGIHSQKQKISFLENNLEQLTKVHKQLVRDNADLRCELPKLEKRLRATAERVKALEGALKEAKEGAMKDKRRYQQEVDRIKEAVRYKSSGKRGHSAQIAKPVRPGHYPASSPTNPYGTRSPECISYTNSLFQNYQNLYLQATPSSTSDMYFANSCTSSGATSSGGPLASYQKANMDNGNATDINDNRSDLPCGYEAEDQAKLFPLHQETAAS

Kif7 = target: T2, Kif7 (Homo sapiens, UniProt Q2M1P5); experiment: Kinesin panel, basal and MT-stimulated ATPase, Kif7; type: biochemical; settings: data not shown
T2 sequence (Q2M1P5 1-1343): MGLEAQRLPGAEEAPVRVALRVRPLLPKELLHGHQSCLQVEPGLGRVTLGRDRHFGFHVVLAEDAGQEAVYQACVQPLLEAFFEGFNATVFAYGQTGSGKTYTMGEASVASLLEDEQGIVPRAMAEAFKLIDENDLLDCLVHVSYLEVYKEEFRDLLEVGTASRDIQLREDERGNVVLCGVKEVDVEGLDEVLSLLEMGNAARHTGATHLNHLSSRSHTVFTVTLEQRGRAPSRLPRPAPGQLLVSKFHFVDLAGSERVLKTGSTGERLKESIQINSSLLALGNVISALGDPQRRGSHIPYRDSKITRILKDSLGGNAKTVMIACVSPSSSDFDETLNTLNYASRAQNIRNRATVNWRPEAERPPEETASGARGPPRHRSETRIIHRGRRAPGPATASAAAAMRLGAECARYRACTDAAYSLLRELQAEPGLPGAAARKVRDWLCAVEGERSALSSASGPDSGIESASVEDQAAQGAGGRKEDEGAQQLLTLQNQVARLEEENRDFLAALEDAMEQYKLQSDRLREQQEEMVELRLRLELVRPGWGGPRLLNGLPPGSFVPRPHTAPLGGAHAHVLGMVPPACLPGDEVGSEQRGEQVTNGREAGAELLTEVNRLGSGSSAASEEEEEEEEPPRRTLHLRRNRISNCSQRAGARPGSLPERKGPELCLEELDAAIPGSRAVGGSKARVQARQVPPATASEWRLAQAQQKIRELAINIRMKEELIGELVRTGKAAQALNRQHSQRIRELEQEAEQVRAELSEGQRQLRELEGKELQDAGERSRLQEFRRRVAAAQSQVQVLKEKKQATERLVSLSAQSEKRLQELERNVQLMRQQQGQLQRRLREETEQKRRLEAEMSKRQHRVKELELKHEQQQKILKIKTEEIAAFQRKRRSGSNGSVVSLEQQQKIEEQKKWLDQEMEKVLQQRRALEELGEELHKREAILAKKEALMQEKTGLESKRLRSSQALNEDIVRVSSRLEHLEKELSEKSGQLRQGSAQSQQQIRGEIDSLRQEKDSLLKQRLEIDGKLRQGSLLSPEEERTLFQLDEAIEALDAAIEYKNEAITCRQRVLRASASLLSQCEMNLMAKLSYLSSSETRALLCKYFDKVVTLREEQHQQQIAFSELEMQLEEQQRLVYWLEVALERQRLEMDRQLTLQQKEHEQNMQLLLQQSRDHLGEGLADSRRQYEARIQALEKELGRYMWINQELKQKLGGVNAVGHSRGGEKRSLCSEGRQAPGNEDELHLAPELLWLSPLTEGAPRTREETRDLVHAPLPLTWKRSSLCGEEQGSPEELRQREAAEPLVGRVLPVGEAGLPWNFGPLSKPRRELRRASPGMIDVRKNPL

MPP1 = MPP1 (Homo sapiens, UniProt Q96Q89); experiment: Kinesin panel, basal and MT-stimulated ATPase, MPP1; type: biochemical; settings: data not shown
MPP1, sequence (Q96Q89 whole entry): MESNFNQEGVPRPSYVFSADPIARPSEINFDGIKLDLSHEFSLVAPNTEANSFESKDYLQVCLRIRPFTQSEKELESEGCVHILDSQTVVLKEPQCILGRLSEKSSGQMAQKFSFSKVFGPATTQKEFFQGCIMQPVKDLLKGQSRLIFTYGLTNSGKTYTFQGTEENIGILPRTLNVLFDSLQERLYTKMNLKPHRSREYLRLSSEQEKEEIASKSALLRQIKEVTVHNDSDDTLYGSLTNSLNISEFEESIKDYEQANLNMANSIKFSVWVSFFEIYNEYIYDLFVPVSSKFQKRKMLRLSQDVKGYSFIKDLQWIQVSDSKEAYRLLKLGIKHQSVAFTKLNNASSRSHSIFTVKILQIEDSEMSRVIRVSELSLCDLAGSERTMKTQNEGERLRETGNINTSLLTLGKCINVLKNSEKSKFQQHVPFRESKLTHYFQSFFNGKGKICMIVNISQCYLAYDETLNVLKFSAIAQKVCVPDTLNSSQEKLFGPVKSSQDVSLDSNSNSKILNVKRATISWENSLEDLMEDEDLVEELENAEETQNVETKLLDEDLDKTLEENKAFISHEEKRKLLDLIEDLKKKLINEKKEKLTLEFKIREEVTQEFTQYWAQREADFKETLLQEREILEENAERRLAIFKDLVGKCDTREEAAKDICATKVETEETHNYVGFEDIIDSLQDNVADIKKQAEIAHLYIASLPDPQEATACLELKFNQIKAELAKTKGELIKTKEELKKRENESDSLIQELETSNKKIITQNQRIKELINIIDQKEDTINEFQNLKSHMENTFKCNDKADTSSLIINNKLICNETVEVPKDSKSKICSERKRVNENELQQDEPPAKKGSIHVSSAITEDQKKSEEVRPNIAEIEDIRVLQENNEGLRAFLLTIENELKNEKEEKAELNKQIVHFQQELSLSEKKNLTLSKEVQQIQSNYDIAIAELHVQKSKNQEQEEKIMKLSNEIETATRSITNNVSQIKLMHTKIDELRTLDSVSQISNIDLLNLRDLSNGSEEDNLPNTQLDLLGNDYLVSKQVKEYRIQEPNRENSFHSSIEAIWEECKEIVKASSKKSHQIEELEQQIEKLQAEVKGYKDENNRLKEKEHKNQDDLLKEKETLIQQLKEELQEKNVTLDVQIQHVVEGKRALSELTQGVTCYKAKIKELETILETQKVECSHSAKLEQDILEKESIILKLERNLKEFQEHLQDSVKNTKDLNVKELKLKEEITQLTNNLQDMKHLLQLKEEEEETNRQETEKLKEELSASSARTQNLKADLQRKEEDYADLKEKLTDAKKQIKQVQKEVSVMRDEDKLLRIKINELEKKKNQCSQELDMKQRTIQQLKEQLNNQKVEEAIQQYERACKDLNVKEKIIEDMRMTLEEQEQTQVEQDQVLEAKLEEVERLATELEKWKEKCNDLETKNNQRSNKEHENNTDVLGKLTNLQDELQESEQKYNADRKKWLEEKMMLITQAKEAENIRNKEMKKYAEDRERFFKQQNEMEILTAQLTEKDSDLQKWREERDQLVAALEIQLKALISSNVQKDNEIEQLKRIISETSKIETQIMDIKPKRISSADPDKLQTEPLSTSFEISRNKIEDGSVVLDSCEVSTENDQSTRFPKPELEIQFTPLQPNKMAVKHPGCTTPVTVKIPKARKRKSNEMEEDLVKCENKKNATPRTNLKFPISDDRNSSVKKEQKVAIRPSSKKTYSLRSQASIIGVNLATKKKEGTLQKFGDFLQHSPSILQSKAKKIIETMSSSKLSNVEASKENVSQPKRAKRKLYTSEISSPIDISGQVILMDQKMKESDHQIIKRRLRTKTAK

MKLP-2 = target: T3, MKLP-2 (Homo sapiens, UniProt O95235); experiment: Kinesin panel, basal and MT-stimulated ATPase, MKLP-2; type: biochemical; settings: data not shown
T3 sequence (O95235 1-890): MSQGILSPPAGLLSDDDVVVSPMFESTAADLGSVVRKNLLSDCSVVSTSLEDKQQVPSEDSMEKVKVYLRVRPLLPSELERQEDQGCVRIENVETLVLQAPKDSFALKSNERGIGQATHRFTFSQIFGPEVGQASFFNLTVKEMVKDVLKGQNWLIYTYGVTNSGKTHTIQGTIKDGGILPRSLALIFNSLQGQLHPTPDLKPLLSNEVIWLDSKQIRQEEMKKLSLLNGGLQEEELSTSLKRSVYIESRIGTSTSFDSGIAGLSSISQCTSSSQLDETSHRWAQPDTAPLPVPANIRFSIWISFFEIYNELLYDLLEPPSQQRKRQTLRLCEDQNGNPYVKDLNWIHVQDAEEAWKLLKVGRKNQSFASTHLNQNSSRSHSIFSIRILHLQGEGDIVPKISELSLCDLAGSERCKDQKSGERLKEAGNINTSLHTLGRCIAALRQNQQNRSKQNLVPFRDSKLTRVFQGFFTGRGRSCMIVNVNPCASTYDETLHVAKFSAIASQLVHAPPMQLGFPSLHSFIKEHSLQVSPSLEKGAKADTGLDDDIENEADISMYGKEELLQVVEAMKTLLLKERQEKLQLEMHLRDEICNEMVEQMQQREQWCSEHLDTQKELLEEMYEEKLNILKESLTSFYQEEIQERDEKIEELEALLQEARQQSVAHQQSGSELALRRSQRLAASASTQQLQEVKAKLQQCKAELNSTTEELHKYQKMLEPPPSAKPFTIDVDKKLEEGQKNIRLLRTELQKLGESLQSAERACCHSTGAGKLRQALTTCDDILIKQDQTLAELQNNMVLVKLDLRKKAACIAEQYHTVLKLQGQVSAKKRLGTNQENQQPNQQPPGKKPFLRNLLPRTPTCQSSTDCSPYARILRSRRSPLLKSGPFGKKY

CENP-E = CENP-E (Homo sapiens, UniProt Q02224); experiment: Kinesin panel, basal and MT-stimulated ATPase, CENP-E; type: biochemical; settings: data not shown
CENP-E, sequence (Q02224 whole entry): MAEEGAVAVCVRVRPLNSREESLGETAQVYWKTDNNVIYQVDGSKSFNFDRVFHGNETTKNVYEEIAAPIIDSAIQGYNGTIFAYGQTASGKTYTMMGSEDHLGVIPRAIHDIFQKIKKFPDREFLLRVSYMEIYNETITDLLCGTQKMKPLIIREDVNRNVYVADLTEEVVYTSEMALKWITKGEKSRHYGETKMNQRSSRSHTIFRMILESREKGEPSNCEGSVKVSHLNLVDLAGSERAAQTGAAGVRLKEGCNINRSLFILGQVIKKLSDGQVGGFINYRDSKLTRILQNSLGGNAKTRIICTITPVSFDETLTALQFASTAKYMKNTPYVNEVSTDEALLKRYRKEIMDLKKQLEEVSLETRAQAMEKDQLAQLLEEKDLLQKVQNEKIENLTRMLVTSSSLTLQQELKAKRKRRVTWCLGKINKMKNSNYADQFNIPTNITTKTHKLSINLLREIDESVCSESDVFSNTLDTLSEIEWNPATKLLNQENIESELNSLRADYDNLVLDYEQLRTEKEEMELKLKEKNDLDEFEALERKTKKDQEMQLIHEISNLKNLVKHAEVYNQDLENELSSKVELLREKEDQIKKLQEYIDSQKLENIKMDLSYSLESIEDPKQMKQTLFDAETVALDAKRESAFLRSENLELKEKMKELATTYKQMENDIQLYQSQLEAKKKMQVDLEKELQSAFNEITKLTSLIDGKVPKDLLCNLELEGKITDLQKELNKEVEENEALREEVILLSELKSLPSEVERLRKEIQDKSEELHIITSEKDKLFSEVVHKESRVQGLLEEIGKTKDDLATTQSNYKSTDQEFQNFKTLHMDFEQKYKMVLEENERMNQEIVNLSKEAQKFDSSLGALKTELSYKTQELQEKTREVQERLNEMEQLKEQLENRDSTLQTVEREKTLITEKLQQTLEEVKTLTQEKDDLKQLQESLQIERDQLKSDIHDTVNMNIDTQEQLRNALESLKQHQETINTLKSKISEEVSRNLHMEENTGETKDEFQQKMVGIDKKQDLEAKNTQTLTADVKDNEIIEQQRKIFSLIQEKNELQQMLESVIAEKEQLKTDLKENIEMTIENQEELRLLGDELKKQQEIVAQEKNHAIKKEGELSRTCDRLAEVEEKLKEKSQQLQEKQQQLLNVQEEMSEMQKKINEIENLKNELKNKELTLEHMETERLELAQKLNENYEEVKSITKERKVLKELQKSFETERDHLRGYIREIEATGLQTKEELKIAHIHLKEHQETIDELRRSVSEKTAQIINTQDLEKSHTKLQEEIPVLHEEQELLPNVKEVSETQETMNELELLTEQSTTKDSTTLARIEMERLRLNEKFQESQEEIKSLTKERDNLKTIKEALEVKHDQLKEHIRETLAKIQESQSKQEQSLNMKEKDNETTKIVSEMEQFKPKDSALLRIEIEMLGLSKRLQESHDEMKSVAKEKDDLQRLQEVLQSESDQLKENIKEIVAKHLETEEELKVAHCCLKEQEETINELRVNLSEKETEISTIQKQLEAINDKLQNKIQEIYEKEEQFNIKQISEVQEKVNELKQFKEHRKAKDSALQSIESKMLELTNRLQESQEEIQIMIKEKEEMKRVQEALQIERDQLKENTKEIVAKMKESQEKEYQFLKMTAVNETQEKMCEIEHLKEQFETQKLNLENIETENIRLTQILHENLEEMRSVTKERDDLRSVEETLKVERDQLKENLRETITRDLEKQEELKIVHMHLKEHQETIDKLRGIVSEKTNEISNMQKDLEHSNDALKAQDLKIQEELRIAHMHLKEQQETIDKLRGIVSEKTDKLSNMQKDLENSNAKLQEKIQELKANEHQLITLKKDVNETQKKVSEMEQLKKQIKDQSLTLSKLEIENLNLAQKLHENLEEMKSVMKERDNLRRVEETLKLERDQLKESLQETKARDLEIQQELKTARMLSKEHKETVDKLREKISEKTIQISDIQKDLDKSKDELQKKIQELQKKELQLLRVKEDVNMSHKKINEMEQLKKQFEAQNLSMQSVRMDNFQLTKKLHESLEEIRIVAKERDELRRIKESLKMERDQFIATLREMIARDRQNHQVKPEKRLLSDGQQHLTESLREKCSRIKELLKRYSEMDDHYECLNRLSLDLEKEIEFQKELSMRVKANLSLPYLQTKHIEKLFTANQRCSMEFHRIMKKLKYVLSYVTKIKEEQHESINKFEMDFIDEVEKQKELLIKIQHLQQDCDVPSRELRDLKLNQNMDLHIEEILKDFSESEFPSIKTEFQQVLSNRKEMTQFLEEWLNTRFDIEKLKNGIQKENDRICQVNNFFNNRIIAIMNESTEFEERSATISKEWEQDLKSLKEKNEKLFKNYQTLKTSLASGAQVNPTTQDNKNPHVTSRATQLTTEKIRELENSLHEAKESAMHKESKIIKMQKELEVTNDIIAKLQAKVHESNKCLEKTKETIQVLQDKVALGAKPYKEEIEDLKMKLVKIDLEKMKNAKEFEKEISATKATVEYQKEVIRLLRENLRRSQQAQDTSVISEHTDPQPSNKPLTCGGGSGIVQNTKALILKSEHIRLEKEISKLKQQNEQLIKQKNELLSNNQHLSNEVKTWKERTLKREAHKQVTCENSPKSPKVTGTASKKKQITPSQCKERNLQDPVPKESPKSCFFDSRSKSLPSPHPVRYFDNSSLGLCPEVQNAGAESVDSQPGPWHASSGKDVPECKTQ

Row | Compound | turbidimetric solubility pH 7.4 | microsomal stability, Clint, human [1] | microsomal stability, Clint, mice [2] | recovery at 5 µM [3] [%] | GI50 (K562 cells) [nM] | inhibition of basal and MT-stimulated ATPase activities, Kif5a (Kif5a) | inhibition of basal and MT-stimulated ATPase activities, Kif7 (Kif7) | inhibition of basal and MT-stimulated ATPase activities, MPP1 (MPP1) | inhibition of basal and MT-stimulated ATPase activities, MKLP-2 (MKLP-2) | inhibition of basal and MT-stimulated ATPase activities, CENP-E (CENP-E)
1 | Cc1cccc(C(CCCN)(c2ccccc2)c2ccccc2)c1 [compound 30, 4-(3-Methylphenyl)-4,4-diphenylbutan-1-amine] | >100, >100, >100 μM | stable | high microsomal clearance | 69.1 |  |  |  |  |  | 
2 | Cc1cccc(C(CCC(N)C(=O)O)(c2ccccc2)c2ccccc2)c1 (racemic) [rac-29, 2-Amino-5-(3-methylphenyl)-5,5-diphenylpentanoic acid] |  |  |  |  | 91 ± 9 | did not observe any significant inhibition | did not observe any significant inhibition | did not observe any significant inhibition | did not observe any significant inhibition | did not observe any significant inhibition
